Experimental data taken from PMC3715147 (Journal of natural products, 2013).

Experiments:
[1] = test system: HIV-1 R5 viruses; details: cited from earlier work
[2] = test system: X4 or dual tropic HIV-1; details: peripheral blood mononuclear cells (PBMCs); cited from earlier work
[3] = test system: HIV-1 NL4-3; assay: Anti-HIV assay: HIV-1 NL4-3 replication in MT4 cells; assay type: cell-based; details: Human immunodeficiency virus 1, NL43, Lymphocyte, read-out: anti-HIV EC90

Compound | inhibition of HIV-1 R5 viruses (in words) [1] | activity against X4 or dual tropic HIV-1 replication (in words) [2] | EC90 [3]
C=C(C)[C@@]12C[C@@H](COC(=O)c3ccccc3)[C@@]34OC5(O[C@@H]1[C@@H]3[C@@H]1O[C@]1(CO)[C@@H](O)[C@@]1(O)[C@H]4[C@H]([C@H](C)[C@@H]1OC(=O)c1ccccc1)[C@H](C)CCCCCC[C@H]5O)O2 [gnidimacrin] | potent inhibitor | essentially inactive | 
CCCCC/C=C\CCC(=O)O[C@@]12[C@H](OC(=O)c3ccccc3)[C@@H](C)[C@@]3(O)[C@@H](C=C(CO)C[C@]4(O)C(=O)C(C)=C[C@@H]34)[C@@H]1C2(C)C [Compound 3, stelleracin A] |  |  | < 1 nM
CCCCCCCC(=O)O[C@]12[C@H]([C@@H]3C=C(CO)C[C@]4(O)C(=O)C(C)=C[C@H]4[C@@]3(O)C[C@H]1OC(=O)c1ccccc1)C2(C)C [Compound 2, 12-O-benzoylphorbol 13-octanoate] |  |  | < 1 nM
CCCCCCCCCC(=O)O[C@@]12[C@H](OC(=O)c3ccccc3)[C@@H](C)[C@@]3(O)[C@@H](C=C(CO)C[C@]4(O)C(=O)C(C)=C[C@@H]34)[C@@H]1C2(C)C [Compound 1, stellerarin] |  |  | < 1 nM
